This is an account of results in patent publication EP0271829A2, “Delta-hydroxy-beta-lysine derivatives and their production” (Takeda Chemical Industries, Ltd., priority 1986, dated 1988).

Values after ≈ are worked out from the molar mass of the structure shown. Bounds are passed on as bounds.

The subject of test [1] is S. aureus 308A-1. In words: Antibacterial activity against gram-positive bacteria (MIC on Tripticase Soy Agar). The settings on record: Staphylococcus aureus, 308A1, Medium: Tripticase Soy Agar, Inoculum size: 10^8 cfu/ml. The format is cell-based. The source says: (§1) Thus obtained Compound (I) is useful as medicines, for example, antibiotics against certain types of gram-positive and gram-negative beacteria. [table] [table]

Test [2] relates to S. aureus 308A-1. Put plainly: Antibacterial activity in mice, s.c. (ED50). The class given is in vivo. The settings on record: Staphylococcus aureus, 308A1, sc.
From the text: as §1

For `C=C/C=C/C(=O)NCC(O)CC(N)CC(=O)NCCC(=N)N` (stereo not shown) [Compound 38b], it took 100 µg/mL (≈ 321 µM) to inhibit growth with S. aureus 308A-1 [1] (MIC). In the test on S. aureus 308A-1 [2], this compound came in with an ED50 of 6.25 mg/kg.

Regarding `C/C=C\C=C\C(=O)NCC(O)CC(CC(=O)NCCC(=N)N)NC` (stereo not shown) [Compound 80], the MIC against S. aureus 308A-1 [1] was more than 100 µg/mL. This compound also gave a 50% effective dose (ED50) in the test on S. aureus 308A-1 [2] of 9.64 mg/kg.

`C/C=C\C=C\C(=O)NCC(O)CC(CC(=O)NCCC(=N)N)NCC` (stereo not shown) [Compound 82]: the MIC with S. aureus 308A-1 [1] is more than 100 µg/mL. For the same compound, the ED50 in the test on S. aureus 308A-1 [2] was found to be 25 mg/kg.

In the test on S. aureus 308A-1 [1], `C/C=C\C=C\C(=O)NCC(O)CC(CC(=O)NCCC(=N)N)NC(=O)C(N)CCCCC(=O)OC` (stereo not shown) [Compound 86b] returned an MIC of more than 100 µg/mL. The same compound came in with an ED50 with S. aureus 308A-1 [2] of 25 mg/kg.

In the test on S. aureus 308A-1 [1], `CN(CC(=O)O)NC(=O)C[C@H](N)C[C@@H](O)CN` [Negamycin, 2-(3R,5R)-3,6-diamino-5-hydroxyhexanoyl-1-methylhydrazinoacetic acid, reference compound] registered a minimum inhibitory concentration (MIC) of more than 100 µg/mL. The compound further returned an ED50 with S. aureus 308A-1 [2] of 38.6 mg/kg.
